Series [1] can be described thus: pKa determination by UV/vis spectrometric method. The class given is physicochemical. The settings on record: buffers I = 0.1 M, 1% methanol. From the text: For the successful determination of pKa values using the UV/vis spectrometric method, the UV/vis absorbance of the sample must change as a function of ionization. […] For the other investigated compounds, the spectra and results of data analysis are presented in the Supporting Information (Figures S1–S3). […] At lower pH values, the molecules are neutral with an absorption maximum between 311 nm and 343 nm. At the highest pH value, only deprotonated species are present with two absorption maxima, one at a wavelength around 370 nm and the other around 305 nm. […] Data analysis for the determination of ionization constants by spectral analysis applied in this study is described by Tomsho et al. and Ríos Martínez and Dardonville.
The results of repeated measurements show satisfactory precision with scatter values less than or equal to 0.06 for all compounds [36].
Working solutions were prepared by 100-fold dilution of stock solutions with appropriate buffer solutions.
Chemicals used for preparation of buffers were sodium acetate (Alkaloid, Skopje, Macedonia), potassium dihydrogenphosphate (Lach-ner, Neratovice, Czech Republic), sodium hydrogencarbonate (Kemika, Zagreb, Croatia), and dipotassium hydrogenphosphate (Fisher Chemical, Loughborough, UK). Sodium hydroxide was supplied by Gram-mol (Zagreb, Croatia), and hydrochloric acid was supplied by VWR Chemicals (Leuven, Belgium). All chemicals used were of analytical grade and used as received. For the preparation of buffer solutions for spectrophotometric measurements, stock solutions of 0.1 M sodium acetate, 0.05 M potassium dihydrogen phosphate, 0.05 M sodium hydrogen carbonate, and 0.05 M dipotassium hydrogen phosphate were used. Sodium acetate/acetic acid buffer was used for pH range 3.5−5.0, KH2PO4/K2HPO4 for pH range 5.5–8.5, […] for pH range 9.0−11.0, and K2HPO4/K3PO4 for pH range 11.0−11.5. All buffer solutions were prepared with the same ionic strength (I = 0.1 M) by adding KCl (Lach-ner, Neratovice, Czech Republic).
The exact pH value of the prepared buffer solutions was measured with an S20 SevenEasy pH-meter (MettlerToledo, Greifenseea, Switzerland).
The data analysis was carried out in the entire specified range. However, due to high absorbance at short wavelengths and zero absorbance at wavelengths greater than 500 nm, spectra in the range from 250 nm to 500 nm are shown in the figures for a clearer presentation. […] Appropriate buffer solutions were used as a blank.
Data analysis included correction of the raw spectra (A(500 nm) = 0) and the calculation of the spectral difference, which were performed using Excel program. The spectral difference was determined between the spectra recorded at each pH and at the spectra recorded at the lowest pH. The wavelengths of maximum positive and negative deviations were determined from the spectral difference graph. The absolute values of the absorbance difference at the determined wavelengths were summed to obtain total absorbance difference. The dependence of the total absorbance difference on pH (spectral difference graph) gives a characteristic sigmoidal curve. […] (1) Total absorbace difference = STεHA−εA^−·10^(pH−pKa)/1+10^(pH−pKa) where [ST] is the total substance concentration, and εHA and εA^− represent the extinction coefficients of the acidic and basic form of the compound, respectively.
Measurements were performed using freshly prepared working solutions. For each resveratrol analogue and each pH, three consecutive measurements were made.

The conditions of series [2]: literature value, no reference given; cited from earlier work.
Where [3] appears, read: mean of three determinations, read-out: pKa¯ ± Scatter Value.
The mark [4] stands for this setting: single determination (one of three).
The mark [5] stands for this setting: single determination (one of three), read-out: pKa.

The structures appear in SMILES notation. Values joined by “and” are separate entries in the source; they are usually repeats but may differ in a detail not shown here. Identical values can stand only once. Like-named read-outs stand apart in the source and are kept apart here.

In general, pKa refers to the negative logarithm of the acid dissociation constant. For `Oc1ccccc1/C=C/c1cccs1` [Compound 2, (E)-2-(2-(Thiophen-2-yl)vinyl)phenol], the pKa in series [1] (setting [3]) was 9.88 ± 0.04; in series [1] (setting [4]) it was 9.86 and 9.92; in series [1] (setting [5]), 9.85.
As to `Oc1cccc(/C=C/c2cccs2)c1` [Compound 3, (E)-3-(2-(Thiophen-2-yl)vinyl)phenol], the values for the pKa in series [1] (setting [3]), in series [1] (setting [4]) and in series [1] (setting [5]) were 10.1, 10.05 and 10.1, respectively.
For `COc1ccc(/C=C/c2cccs2)c(O)c1` [Compound 4, (E)-5-Methoxy-2-(2-(thiophen-2-yl)vinyl)phenol], the pKa in series [1] (setting [3]) is 9.17 ± 0.06; in series [1] (setting [4]), 9.21 and 9.11; in series [1] (setting [5]) it was 9.19.
With `COc1cccc(O)c1` [meta-methoxyphenol], the “experimental pKa^exp” value in series [2] was 9.6.
For the compound `COc1ccc(/C=C/c2ccc(C)s2)c(O)c1` [Compound 6, (E)-5-Methoxy-2-(2-(5-methythiophen-2-yl)vinyl)phenol], the pKa in series [1] (setting [3]) was 9.62; in series [1] (setting [4]), 9.59 and 9.66; in series [1] (setting [5]), 9.62.
Regarding `Cc1ccc(/C=C/c2ccccc2O)s1` [Compound 5, (E)-2-(2-(5-Methylthiophen-2-yl)vinyl)phenol], the pKa in series [1] (setting [3]) worked out at 9.4; in series [1] (setting [4]), 9.36; in series [1] (setting [5]), 9.45.

(Values after article PMC11597387 (Molecules, 2024).)
